For one test, the target named is TEM-1 (Escherichia coli, UniProt P62593). The note with it: read-out: IC50 β-lactamase TEM-1; class (A); nitrocefin 200 μM, 30-min pre-incubation, enzyme 0.1 nM.
A further test deals with CMY-37 (Citrobacter freundii, UniProt P05193). The note with it: read-out: IC50 β-lactamase CMY-37; class (C); nitrocefin 200 μM, 30-min pre-incubation, enzyme 0.2 nM.
The target of the next test is OXA-11 (Pseudomonas aeruginosa, UniProt Q06778). The note with it: read-out: IC50 β-lactamase OXA-11; class (D); nitrocefin 200 μM, 30-min pre-incubation, enzyme 1.2 nM.
Another test has as its target SHV-1 (Klebsiella pneumoniae, UniProt P0AD64). The note with it: read-out: IC50 β-lactamase SHV-1; class (A); nitrocefin 200 μM, 30-min pre-incubation, enzyme 0.075 nM.
For a further test, the target named is CTX-M-15 (Escherichia coli, UniProt Q9EXV5). The note with it: read-out: IC50 β-lactamase CTX-M-15; class (A); nitrocefin 200 μM, 30-min pre-incubation, enzyme 0.4 nM.
The target of a further test is AmpC (PAE) (Pseudomonas aeruginosa, UniProt P24735). The note with it: read-out: IC50 β-lactamase AmpC (PAE); class (C); nitrocefin 200 μM, 30-min pre-incubation, enzyme 0.4 nM.
In another test the target is OXA-1 (Escherichia coli, UniProt P13661). The note with it: read-out: IC50 β-lactamase OXA-1; class (D); nitrocefin 200 μM, 30-min pre-incubation, enzyme 0.2 nM.
For another test, the target named is AmpC (P99) (Enterobacter cloacae, UniProt P05364). The note with it: read-out: IC50 β-lactamase AmpC (P99); class (C); nitrocefin 200 μM, 30-min pre-incubation, enzyme 0.2 nM.
For test [1], the system named is K. pneumoniae BAA-1898. Nature of the test: MIC of ceftazidime (CAZ) at fixed concentration of compound (synergy), broth microdilution. The test is classed as cell-based. The note with it: strain BAA-1898; MIC of CAZ, compound fixed at 4 μg/mL. The essentials: (§1)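 Visual end point: lowest concentration that blocked growth. Conditions: cation-adjusted Mueller-Hinton broth, 5×10^5 cfu/mL final inoculum of log-phase bacteria, 16-20 h, 35° C, ambient atmosphere.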
(In broth dilution the organism is exposed to a series of concentrations in liquid medium.)

The test system of test [2] is P. aeruginosa CIP107051. Described as above. The test is classed as cell-based. The note with it: strain CIP107051; MIC of CAZ, compound fixed at 4 μg/mL. The essentials: as §1
For test [3], the system named is E. coli 190317. The description is as above. The test is classed as cell-based. The note with it: strain 190317; MIC of CAZ, compound fixed at 4 μg/mL. The method in brief:
as §1

Test [4] has as its system E. cloacae P99. The test is described as above. The class given is cell-based. The note with it: strain P99; MIC of CAZ, compound fixed at 4 μg/mL. The essentials:
as §1

Test [5] relates to K. pneumoniae 6299. Described as above. The test is classed as cell-based. The note with it: strain 6299; MIC of CAZ, compound fixed at 4 μg/mL. The essentials: as §1
For a further test, the target named is OXA-15 (Pseudomonas aeruginosa, UniProt Q51574). The note with it: read-out: IC50 β-lactamase OXA-15; class (D); nitrocefin 200 μM, 30-min pre-incubation, enzyme 0.4 nM.
Test [6] has as its system K. pneumoniae BAA-1898. Description: MIC of compound alone, broth microdilution. The test is classed as cell-based. The note with it: strain BAA-1898; compound alone. The method in brief: as §1
In test [7] the test system is P. aeruginosa CIP107051. Nature of the test: MIC of compound alone, broth microdilution. The test is classed as cell-based. The note with it: strain CIP107051; compound alone. The essentials:
as §1

For test [8], the system named is E. coli 190317. Nature of the test: MIC of compound alone, broth microdilution. The test is classed as cell-based. The note with it: strain 190317; compound alone. The essentials:
as §1

Test [9] has as its system E. cloacae P99. Nature of the test: MIC of compound alone, broth microdilution. The class given is cell-based. The note with it: strain P99; compound alone. The method in brief:
as §1

For test [10], the system named is K. pneumoniae 6299. Nature of the test: MIC of compound alone, broth microdilution. The class given is cell-based. The note with it: strain 6299; compound alone. The method in brief:
as §1

The target in a further test is OXA-48 (Klebsiella pneumoniae, UniProt Q6XEC0). The note with it: read-out: IC50 β-lactamase OXA-48; class (D); nitrocefin 200 μM, 30-min pre-incubation, enzyme 0.3 nM.
A further test concerns the target KPC-2 (Klebsiella pneumoniae, UniProt Q9F663). The note with it: read-out: IC50 β-lactamase KPC-2; class (A); nitrocefin 200 μM, 30-min pre-incubation, enzyme 1 nM.

By IC50 is commonly meant the concentration at which inhibition is half-maximal. Regarding `NC(=O)c1cc(F)n(C2=CC3CN(C2)C(=O)N3OS(=O)(=O)[O-])n1.[Na+]` (stereo not drawn) [Example 30, sodium (7-oxo-3-(3-carboxamide-5-fluoro-pyrazol-1-yl)-1,6-diazabicyclo[3.2.1]oct-3-en-6-yl) sulfate], the IC50 on TEM-1 worked out at 0.33 nM; on CMY-37, 99 nM; at OXA-11 it was 29 nM; on SHV-1 it was 2.7 nM; on CTX-M-15, 1 nM; at AmpC (PAE) it was 370 nM. Moreover, the IC50 was 350 nM at OXA-1; 28 nM on AmpC (P99); 170 nM at OXA-15; 36 nM on OXA-48; 5.3 nM at KPC-2. The “MIC combination of CAZ and compounds of the invention at 4 μg/mL” value (“MIC combination” below) with K. pneumoniae BAA-1898 [1] is 2 µg/mL; with P. aeruginosa CIP107051 [2], 16 µg/mL; in the test with E. coli 190317 [3], 0.25 µg/mL; in the test on E. cloacae P99 [4], 8 µg/mL; in the test with K. pneumoniae 6299 [5], 1 µg/mL. Also, the “MIC compounds of the invention alone” value in the test on K. pneumoniae BAA-1898 [6] is above 32 µg/mL; with P. aeruginosa CIP107051 [7] it was above 32 µg/mL; with E. coli 190317 [8] it was 32 µg/mL; in the test on E. cloacae P99 [9], above 32 µg/mL; in the test with K. pneumoniae 6299 [10] it was above 32 µg/mL.

Regarding `CC(=O)Nc1ccn(C2=CC3CN(C2)C(=O)N3OS(=O)(=O)O)n1.CCN(CC)CC` (stereo not drawn) [Example 33, triethylammonium {[3-(N-acetamido)pyrazol-1-yl]-7-oxo-1,6-diazabicyclo[3.2.1]oct-3-en-6-yl}sulfate], the 50% inhibitory concentration (IC50) worked out at 0.67 nM on TEM-1; 3.2 nM at CMY-37; 8.4 nM on OXA-11; 1.7 nM at SHV-1; 0.72 nM on CTX-M-15; 32 nM on AmpC (PAE). The IC50 stood at 68 nM at OXA-1; 7.1 nM on AmpC (P99); 44 nM at OXA-15; 3.1 nM on OXA-48; 11 nM at KPC-2. Moreover, the “MIC combination” value is 16 µg/mL in the test with K. pneumoniae BAA-1898 [1]; 8 µg/mL with P. aeruginosa CIP107051 [2]; at most 0.25 µg/mL in the test with E. coli 190317 [3]; 1 µg/mL with E. cloacae P99 [4]; 0.25 µg/mL in the test on K. pneumoniae 6299 [5]. In addition, the “MIC compounds of the invention alone” value in the test with K. pneumoniae BAA-1898 [6] is 32 µg/mL; in the test on P. aeruginosa CIP107051 [7], above 32 µg/mL; in the test on E. coli 190317 [8], 8 µg/mL; in the test with E. cloacae P99 [9], 16 µg/mL; in the test with K. pneumoniae 6299 [10] it was 32 µg/mL.

With `C/C(=N/O)c1cnn(C2=CC3CN(C2)C(=O)N3OS(=O)(=O)[O-])c1.[Na+]` (stereo not drawn) [Example 39, sodium [3-[4-[(Z,E)-N-hydroxy-C-methyl-carbonimidoyl]pyrazol-1-yl]-7-oxo-1,6-diazabicyclo[3.2.1]oct-3-en-6-yl]sulfate], the concentration for half-maximal inhibition (IC50) at TEM-1 worked out at 0.21 nM; on CMY-37 it was 8.1 nM; on OXA-11, 73 nM; at SHV-1, 1.3 nM; at CTX-M-15, 0.56 nM; at AmpC (PAE), 82 nM. For the same compound, the IC50 on OXA-1 was determined as 150 nM; at AmpC (P99) it was 9.5 nM; at OXA-15 it was 8.5 nM; at OXA-48, 1.8 nM; at KPC-2, 4.1 nM. For the same compound, the “MIC combination” value came to 128 µg/mL in the test on K. pneumoniae BAA-1898 [1]; 8 µg/mL with P. aeruginosa CIP107051 [2]; 1 µg/mL in the test with E. coli 190317 [3]; 16 µg/mL in the test with E. cloacae P99 [4]; 16 µg/mL with K. pneumoniae 6299 [5]. For the same compound, the “MIC compounds of the invention alone” value with K. pneumoniae BAA-1898 [6], with P. aeruginosa CIP107051 [7], in the test on E. coli 190317 [8], with E. cloacae P99 [9] and in the test on K. pneumoniae 6299 [10] was above 32 µg/mL in each case.

Take `NCc1cn(C2=CC3CN(C2)C(=O)N3OS(=O)(=O)[O-])nn1.O=C(O)C(F)(F)F.[Na+]` (stereo not drawn) [Example 57, sodium and 2,2,2-trifluoroacetate [3-[4-(ammoniummethyl)triazol-1-yl]-7-oxo-1,6-diazabicyclo[3.2.1]oct-3-en-6-yl]sulfate]: the IC50 at TEM-1 was found to be 0.37 nM; at CMY-37 it was 31 nM; at OXA-11 it was 170 nM; on SHV-1, 2.6 nM; on CTX-M-15, 0.75 nM; at AmpC (PAE), 550 nM. Besides, the half-maximal inhibitory concentration (IC50) at OXA-1 is 66 nM; on AmpC (P99) it was 21 nM; on OXA-15, 6.4 nM; at OXA-48 it was 1.1 nM; at KPC-2 it was 11 nM. The “MIC combination” value with K. pneumoniae BAA-1898 [1] was at most 0.25 µg/mL; in the test with P. aeruginosa CIP107051 [2] it was 4 µg/mL; in the test on E. coli 190317 [3], below 0.25 µg/mL; in the test with E. cloacae P99 [4] it was below 0.25 µg/mL; in the test on K. pneumoniae 6299 [5] it was at most 0.25 µg/mL. The “MIC compounds of the invention alone” value in the test with K. pneumoniae BAA-1898 [6] was 16 µg/mL; with P. aeruginosa CIP107051 [7], 16 µg/mL; in the test on E. coli 190317 [8], 0.5 µg/mL; in the test with E. cloacae P99 [9], 1 µg/mL; with K. pneumoniae 6299 [10], above 32 µg/mL.

Take `O=C1N2CC(n3ccc(-c4ncco4)n3)=CC(C2)N1OS(=O)(=O)[O-].[Na+]` (stereo not drawn) [Example 78]: the IC50 on TEM-1 was 0.37 nM; at CMY-37, 29 nM; at OXA-11, 6.5 nM; on SHV-1 it was 1.5 nM; on CTX-M-15 it was 0.46 nM; at AmpC (PAE), 250 nM. Moreover, the IC50 at OXA-1 came to 64 nM; at AmpC (P99), 14 nM; at OXA-15 it was 24 nM; at OXA-48 it was 3 nM; at KPC-2, 2.7 nM. Also, the “MIC combination” value in the test on K. pneumoniae BAA-1898 [1] is 16 µg/mL; in the test with P. aeruginosa CIP107051 [2], 8 µg/mL; in the test on E. coli 190317 [3], 0.5 µg/mL; with E. cloacae P99 [4] it was 8 µg/mL; with K. pneumoniae 6299 [5] it was 2 µg/mL. Moreover, the “MIC compounds of the invention alone” value in the test on K. pneumoniae BAA-1898 [6], with P. aeruginosa CIP107051 [7], in the test with E. coli 190317 [8], with E. cloacae P99 [9] and in the test with K. pneumoniae 6299 [10] was above 32 µg/mL in each case.

Values taken from patent publication US10722520B2, “Heterocyclic compounds and their use in preventing or treating bacterial infections” (MUTABILIS, priority 2016, dated 2020).
